Patent US9758527B2, “Cyclohexene derivative, preparation method therefor, and pharmaceutical composition for preventing or treating metabolic diseases, containing same as active ingredient” (HYUNDAI PHARM CO., LTD., priority 2014, dated 2017)
Where a name gives a salt, the structure may show the parent alone. Read-outs that look alike come from different tables or passages of the source.

Molecular target: T1, G protein-coupled receptor 119 (GPR-119) (Mesocricetus auratus, UniProt A0A1U8CD06)
T1 construct: hamster-derived β-cells containing G protein-coupled receptor 119 (GPR-119), HIT-T15 cells; host or cells: HIT-T15 (hamster pancreatic β-cells)
T1 sequence (A0A1U8CD06 1-334): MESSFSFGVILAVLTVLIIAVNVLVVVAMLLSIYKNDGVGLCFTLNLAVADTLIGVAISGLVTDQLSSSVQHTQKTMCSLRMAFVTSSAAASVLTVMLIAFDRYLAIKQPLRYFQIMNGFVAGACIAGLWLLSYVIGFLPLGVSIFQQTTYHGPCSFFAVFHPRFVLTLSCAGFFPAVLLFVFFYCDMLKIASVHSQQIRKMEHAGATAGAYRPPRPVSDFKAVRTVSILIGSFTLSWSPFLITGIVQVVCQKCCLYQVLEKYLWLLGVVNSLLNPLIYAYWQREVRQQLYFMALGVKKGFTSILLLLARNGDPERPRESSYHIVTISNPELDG
Test: Evaluation of cAMP activity in HIT-T15 cells (HTRF cAMP dynamic kit)
Format: cell-based, hamster
Settings: cAMP activation
How it was run: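 HIT-T15 cells, 60,000/well, treated next day with compound at six concentrations ([…]) for 1 h at 37° C. Lysate cAMP quantified by HTRF competitive immunoassay (D2-cAMP, cryptate anti-cAMP); activity taken as change in FRET signal relative to DMSO.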

[1] = 1 h at 37° C., six concentrations, read-out: EC50

Row | SMILES | EC50 [1] [nM] | EC50 (read-out: EC50 value) [nM]
1 | CC(C)c1noc(N2CCC(COc3ccc(C4=CCC(C(=O)NCC(=O)N5CCC[C@H]5C(N)=O)CC4)cc3F)CC2)n1 (stereo partly drawn) [Example 133, (2S)-1-(2-(4-(3-fluoro-4-((1-(3-isopropyl-1,2,4-oxadiazol-5-yl)piperidin-4-yl)methoxy)phenyl)cyclohex-3-enecarboxamido)acetyl)pyrrolidine-2-carboxamide] | 400 | 
2 | CC(C)c1noc(N2CCC(COc3ccc(C4=CCC(C(=O)NC(CO)CO)CC4)nc3)CC2)n1 (stereo not drawn) [Example 46, N-(1,3-dihydroxypropan-2-yl)-4-(5-((1-(3-isopropyl-1,2,4-oxadiazol-5-yl)piperidin-4-yl)methoxy)pyridin-2-yl)cyclohex-3-enecarboxamide] | 500 | 
3 | CC(C)c1noc(N2CCC(COc3ccc(C4=CCC(C(=O)N5CC(O)C5)CC4)cc3)CC2)n1 (stereo not drawn) [Example 289, (3-hydroxyazetidin-1-yl)(4-(4-((1-(3-isopropyl-1,2,4-oxadiazol-5-yl)piperidin-4-yl)methoxy)phenyl)cyclohex-3-enyl)methanone] | 32 | ≤ 50
4 | CC(C)c1noc(N2CCC(COc3ccc(C4=CCC(C(=O)N5CC[C@H](F)C5)CC4)nc3)CC2)n1 (stereo partly drawn) [Example 102, ((S)-3-fluoropyrrolidin-1-yl)(4-(5-((1-(3-isopropyl-1,2,4-oxadiazol-5-yl)piperidin-4-yl)methoxy)pyridin-2-yl)cyclohex-3-enyl)methanone] | 52 | 
5 | C[C@H](CO)NC(=O)C1CC=C(c2ccc(OCC3CCN(C(=O)OC(C)(C)C)CC3)c(F)c2)CC1 (stereo partly drawn) [Example 60, tert-butyl 4-((2-fluoro-4-(4-((R)-1-hydroxypropan-2-ylcarbamoyl)cyclohex-1-enyl)phenoxy)methyl)piperidine-1-carboxylate] | 40 | ≤ 50
6 | CC(C)(C)OC(=O)N1CCC(COc2ccc(C3=CCC(C(=O)N4CC[C@H](O)C4)CC3)cn2)CC1 (stereo partly drawn) [Example 42, tert-butyl 4-((5-(4-((S)-3-hydroxypyrrolidine-1-carbonyl)cyclohex-1-enyl)pyridin-2-yloxy)methyl)piperidine-1-carboxylate] | 82 | 

The next compounds have a lower EC50 [1] than those just listed; values first:

Row | EC50 [1] [nM] | EC50 (read-out: EC50 value) [nM] | SMILES
7 | 27 | ≤ 50 | CC(C)c1noc(N2CCC(COc3ccc(C4=CCC(C(=O)N5CC[C@@H](F)C5)CC4)cc3F)CC2)n1 (stereo partly drawn) [Example 96, (4-(3-fluoro-4-((1-(3-isopropyl-1,2,4-oxadiazol-5-yl)piperidin-4-yl)methoxy)phenyl)cyclohex-3-enyl)((R)-3-fluoropyrrolidin-1-yl)methanone]
8 | 18 | ≤ 50 | CON=C1CCN(C(=O)C2CC=C(c3ccc(OCC4CCN(c5nc(C(C)C)no5)CC4)cc3)CC2)CC1 (stereo not drawn) [Example 278, (4-(4-((1-(3-isopropyl-1,2,4-oxadiazol-5-yl)piperidin-4-yl)methoxy)phenyl)cyclohex-3-enyl)(4-(methoxyimino)piperidin-1-yl)methanone]
9 | 13 | ≤ 50 | CC(C)(C)OC(=O)N1CCC(COc2ccc(C3=CCC(C(=O)N4CCOCC4)CC3)cc2)CC1 (stereo not drawn) [Example 7, tert-butyl 4-((4-(4-(morpholine-4-carbonyl)cyclohex-1-enyl)phenoxy)methyl)piperidine-1-carboxylate]
10 | 12 | ≤ 50 | CC(C)c1noc(N2CCC(COc3ccc(C4=CCC(C(=O)N(C)CCCN)CC4)cc3)CC2)n1 (stereo not drawn) [Example 77, N-(3-aminopropyl)-4-(4-((1-(3-isopropyl-1,2,4-oxadiazol-5-yl)piperidin-4-yl)methoxy)phenyl)-N-methylcyclohex-3-enecarboxamide]
11 | 20 | ≤ 50 | CCc1cnc(N2CCC(COc3ccc(C4=CCC(C(=O)N5CC[C@@H](CO)C5)CC4)cc3)CC2)nc1 (stereo partly drawn) [Example 159, (4-(4-((1-(5-ethylpyrimidin-2-yl)piperidin-4-yl)methoxy)phenyl)cyclohex-3-enyl)((R)-3-(hydroxymethyl)pyrrolidin-1-yl)methanone hydrochloride]
